Results as given in article PMC5629628, “The development of activatable lytic peptides for targeting triple negative breast cancer” (Cell Death Discovery, 2017).

How the values were obtained:
[1] = test system: caspase-3/7 in MDA-MB-231 cells; experiment: Caspase-3/7 activation analysis; format: cell-based, human; settings: MDA-MB-231, 4 h treatment; Uk14 5 μM, Ur11 10 μM, ABT-737 10 μM
Experimental: Cells (MDA-MB-231) were plated 10 000 per well on 96-well plates in medium containing 10% fetal bovine serum and incubated with serial dilution of peptides and ABT-737 for 4 h. Then caspase-3/7 activation was measured by addition of the caspase-Glo 3/7 chemiluminescence reagent in accordance with the manufacturer’s protocol (Promega, Madison, WI, USA).

MDA-MB-231 = experiment: Cell viability with or without caspase inhibitor Z-VAD-FMK; format: cell-based, human; settings: MDA-MB-231, 24 h treatment, with or without Z-VAD-FMK
Experimental: 100 μl of 4×10^4/ml cell suspension (MDA-MB-231, MCF-7, HeLa, SK-OV-3) was placed in each well of the 96-well culture plate and allowed to grow in dulbecco's modified eagle medium or Leibovitz medium (L-15) supplemented with 10% fetal bovine serum overnight. The cells were incubated with serial dilution of compounds at 310 K in 5% fetal bovine serum containing media for 24 h supplied with 5% CO2. At the end of the compounds exposure, 20 μl of 3-(4,5-dimethyl-2-thiazolyl)-2,5-diphenyl-2-H-tetrazolium bromide reagent was added and incubated at 310 K for 4 h. The absorbance of formazan product was measured at 490 nm by a microplate reader (PerkinElmer, Waltham, MA, USA). Cells without peptide were treated as control. *P<0.05, **P<0.01, ***P<0.001 compared with vehicle-treated cells. In Z-VAD-FMK assays, *P<0.05, **P<0.01, ***P<0.001 compared with cells without treatment of Z-VAD-FMK.

CN(C)CC[C@H](CSc1ccccc1)Nc1ccc(S(=O)(=O)NC(=O)c2ccc(N3CCN(Cc4ccccc4-c4ccc(Cl)cc4)CC3)cc2)cc1[N+](=O)[O-] [ABT-737, reference compound]
caspase-3/7 activation [1]: observed
effect of caspase inhibitor Z-VAD-FMK on cytotoxic effect (MDA-MB-231): did have an inhibitory effect
